{"source": "patent US7528144B2", "about": "“Molecules and methods for fluorescence microscopy” (WiSys Technology Foundation, Inc., priority 2005, dated 2009)", "test_system": "THP-1 cells", "assay": "Photobleaching under repeated exposures in cells", "format": "cell-based", "conditions": "75-200 nM, repeated CCD exposures (FIG. 25)", "protocol": "FIG. 25 depicts (A) InstantLyso LLT-1 at 75 nM in THP-1 cells. Exposures were taken every 30 seconds (with consistent CCD exposure length 7.5 seconds) with blue excitation cube (490 nm maximum).; (B) InstantGolgi McN-1 at 200 nm in THP-1 cells. Exposures were taken with consistent CCD exposure length with purple excitation cube.; (C) InstantLipo Sep-1at 200 nm in THP-1 cells. Exposures were taken with consistent CCD exposure length with purple excitation cube; and (D) Lysotracker Red at 75 nM in THP-1 cells. Exposures were taken every 5 seconds (with consistent CCD exposure length) with green excitation cube. Unretouched, unprocessed images.\nThe dyes of the present invention hold up well to photobleaching relative to the time needed to take most fluorescence shots (a few seconds)."}
{"smiles": "CCCCCCN1C(=O)c2cccc3c(NCCN)ccc(c23)C1=O", "note": "[InstantLyso LLT-1, 6-(2-aminoethyl)amino-2-hexyl-1H-benz[de]isoquinoline-1,3-(2H)-dione]", "values": [{"measurement": "resistance to photobleaching", "result": "holds up much better than the others"}]}
